Measured values as given in patent publication US20250049931A1, “POLYSARCOSINE-VITAMIN E DERIVATIVES” (POLYPEPTIDE THERAPEUTIC SOLUTIONS, S.L., priority 2021, published 2025).

Legend:
[1] = Skin permeation studies by Franz diffusion cells; assay type: in vitro ADME, human; details: TPGS-Dil and TPSS-Dil micelles 10 mg/mL, 8 h
Experimental: Breast skin samples were obtained from healthy women undergoing plastic surgery after written informed consent (kindly donated by Hospital la Fe, Valencia, Spain). Immediately after excision, the subcutaneous fatty tissue was carefully removed using a scalpel. The skin was cut into 4 cm^2 pieces, wrapped in aluminum foil and stored at −20° C. until use. To reduce inter-individual variability and afford a better comparison of results, skin from only one donor was used in all experiments. Before starting each experiment, the skin was allowed to equilibrate at room temperature (r.t.).
Permeation studies employed the modified Franz diffusion cells (Logan Instruments Corp., EE. UU) with a diffusional area of 0.95 cm^2. […]
Finally, the samples were placed in the optimum cutting temperature (OCT) inclusion medium, and slides of 5 μm were generated via cryostat (version CM1850 UV, Leica, Germany) and samples were analyzed by confocal microscopy.
Images were captured with an inverted DM IRE2 microscope equipped with a λ-blue 40× oil immersion objective and handled with a TCS SP2 system, equipped with an Acoustic Optical Beam Splitter (AOBS). […] Control tissue that follows the same incubation time with MilliQ water was also analyzed to establish the autofluorescence. Dil intensity was quantified five times per sample using Image J software.

[2] = tested on: HaCaT cells; assay: Cell viability by MTS assay, HaCaT; assay type: cell-based, human; details: 72 h, 0.1 to 2.57 μg/mL equivalents of Vitamin E
[3] = tested on: human fibroblasts; assay: Cell viability by MTS assay, fibroblasts; assay type: cell-based; details: 72 h, 0.1 to 2.57 μg/mL equivalents of Vitamin E

SMILES | Dil found in the receptor chamber [1] | cytotoxic effect (cell viability by MTS) [2] | cytotoxic effect (cell viability by MTS) [3]
CCCCCCCCCCCCCCCCCCN1C(=CC=CC2=[N+](CCCCCCCCCCCCCCCCCC)c3ccccc3C2(C)C)C(C)(C)c2ccccc21.[O-][Cl+3]([O-])([O-])[O-] [Dil, 1,1′-dioctadecyl-3,3,3′,3′-tetramethylindocarbocyanine perchlorate] | any Dil was found in the receptor chamber | – | –
Cc1c(C)c2c(c(C)c1O)CC[C@@](C)(CCC[C@H](C)CCC[C@H](C)CCCC(C)C)O2 [Vitamin E, α-tocopherol] | – | no cytotoxic effect | no cytotoxic effect
